We go through 3 compounds from article PMC5967867, “An NMDAR positive and negative allosteric modulator series share a binding site and are interconverted by methyl groups” (eLife, 2018).

In general, kon refers to the rate constant with which the complex forms. For orientation: koff means a measure of how fast the partners let go of each other. In general, Kd refers to a measure of binding affinity in units of concentration.

One test addresses GluN1/GluN2D NMDARs (Rattus norvegicus, UniProt P35439+Q62645). Nature of the test: Whole cell patch-clamp recordings, HEK293 cells expressing GluN1/GluN2D. The class given is cell-based. The conditions noted are these: for kon / koff: HEK293; for kon: read-out: association rate kon; for koff: read-out: dissociation rate koff; for Kd: calculated from association and dissociation rates, HEK cells, read-out: kinetically-determined affinity constant Kd. As for the experimental part: We studied NMDARs expressed in HEK293 cells to investigate the time course of modulator action. […] These modulators were tested on GluN1/GluN2A and GluN1/GluN2D to see whether there were differences in modulation given the distinct properties of these NMDAR subtypes. […] The time-course of modulator binding of EU1794-2, EU1794-4 and EU1794-27 was also determined for GluN1/GluN2A (Figure 4C,D).
(§1) cDNAs for rat wild type NMDAR subunits GluN1-1a (GenBank U11418, U08261; hereafter GluN1 or GluN1a), GluN1-1b (U08263, hereafter GluN1b), GluN2A (D13211), GluN2B (U11419), GluN2C (M91563), and GluN2D (L31611, modified as described in [Monyer et al., 1994]) were provided by Drs. S. Heinemann (Salk Institute), S. Nakanishi (Kyoto University), and P. Seeburg (University of Heidelberg). Site-directed mutagenesis was conducted using the QuikChange kit (Agilent Technologies, Santa Clara, CA) following the recommended protocol. DNA sequencing was used to verify all mutations. The amino acid numbering system started with the initiating methionine as residue number one. For expression in Xenopus laevis oocytes, cDNA constructs were linearized by restriction enzymes, and subsequently used to synthesize in vitro cRNAs following the manufacturer’s protocol (mMessage mMachine, Ambion, ThermoFisher Scientific, Waltham, MA).
HEK293 cells (CRL-1573, ATCC, Manassas, VA) were maintained in a tissue culture room solely reserved for their culturing and transfected using a CaPO4 protocol to express the diheteromeric NMDARs as previously described ([Hansen et al., 2013]). Cell lines were obtained directly from the supplier, were expanded, frozen and kept in liquid nitrogen in a dewar. Mycoplasma testing was not performed. cDNA ratios for transfection were 1:1:1 (GluN2D) or 1:1:5 (GluN2A) for GluN1:GluN2:GFP.

A further test deals with GluN1/GluN2A NMDARs (Rattus norvegicus, UniProt P35439+Q00959). Nature of the test: Whole cell patch-clamp recordings, HEK293 cells expressing GluN1/GluN2A. The test is classed as cell-based. The conditions noted are these: for modulation of high desensitized steady state responses / modulation of low desensitized steady state responses (drug/control): 10 µM, 100/30 µM glutamate/glycine; for modulation of high desensitized steady state responses / modulation of low desensitized steady state responses (drug/control) / Kd: HEK cells; for kon / koff: HEK293; for kon: read-out: association rate kon; for koff: read-out: dissociation rate koff; for Kd: calculated from association and dissociation rates, read-out: kinetically-determined affinity constant Kd. The protocol: We studied NMDARs expressed in HEK293 cells to investigate the time course of modulator action. […] These modulators were tested on GluN1/GluN2A and GluN1/GluN2D to see whether there were differences in modulation given the distinct properties of these NMDAR subtypes. […] From these we calculated the kinetically-determined affinity constant (Kd), which we found to be similar to the EC50 values determined from concentration-response experiments. […] Complex actions of EU1794-4 and EU1794-27 were observed, with two temporally-distinct phases of modulation evident for the association of these modulators (Figure 4A). Both compounds produced a rapid inhibition followed by a slowly developing potentiating phase for EU1794-27. The rapid association rate determined during the rapid inhibition produced by EU1794-4 was approximately three times faster than EU1794-2; similarly, the dissociation rate was also faster for EU1794-4 than EU1794-2. Quantitative analysis of the slower phases was challenging due to its lower signal-to-noise ratio. Likewise, the rapid inhibitory phase was also difficult to measure for EU1794-27 because its rapid time course was convolved with the potentiation time course. Additionally, the depotentiation time course is preceded by a transient enhancement of the current response, followed by a relaxation to the pre-modulation level. The time course for potentiation and depotentiation were best fit with an exponential function summed with an additional linear component after the rapid phase subsided. […] All modulatory effects were independent of voltage (Figure 4—figure supplement 1A). The steady state modulator responses from HEK293 cells approximately match the concentration-response relationship determined from TEVC recordings from X. laevis oocytes (Figure 4A, inset graphs). The time-course of modulator binding of EU1794-2, EU1794-4 and EU1794-27 was also determined for GluN1/GluN2A (Figure 4C,D). Higher Kd values (lower potency) were determined for each molecule at GluN1/GluN2A as compared to GluN1/GluN2D that parallel EC50 values determined using X. laevis oocytes. Similar to oocyte data, robust inhibition was produced by EU1794-2, modest inhibition was produced by EU1794-4, and transient inhibition and recovery was observed by the application of EU1794-27. […] The low desensitized group (40% average desensitization) was modulated by 107%, whereas the high desensitized group (10% average desensitization) was modulated to 247% of control by 10 µM EU1794-27 (Figure 4C and Figure 4—figure supplement 1F).
GluN1/GluN2A NMDARs, sequence (Q00959 23-1464, other chains not shown): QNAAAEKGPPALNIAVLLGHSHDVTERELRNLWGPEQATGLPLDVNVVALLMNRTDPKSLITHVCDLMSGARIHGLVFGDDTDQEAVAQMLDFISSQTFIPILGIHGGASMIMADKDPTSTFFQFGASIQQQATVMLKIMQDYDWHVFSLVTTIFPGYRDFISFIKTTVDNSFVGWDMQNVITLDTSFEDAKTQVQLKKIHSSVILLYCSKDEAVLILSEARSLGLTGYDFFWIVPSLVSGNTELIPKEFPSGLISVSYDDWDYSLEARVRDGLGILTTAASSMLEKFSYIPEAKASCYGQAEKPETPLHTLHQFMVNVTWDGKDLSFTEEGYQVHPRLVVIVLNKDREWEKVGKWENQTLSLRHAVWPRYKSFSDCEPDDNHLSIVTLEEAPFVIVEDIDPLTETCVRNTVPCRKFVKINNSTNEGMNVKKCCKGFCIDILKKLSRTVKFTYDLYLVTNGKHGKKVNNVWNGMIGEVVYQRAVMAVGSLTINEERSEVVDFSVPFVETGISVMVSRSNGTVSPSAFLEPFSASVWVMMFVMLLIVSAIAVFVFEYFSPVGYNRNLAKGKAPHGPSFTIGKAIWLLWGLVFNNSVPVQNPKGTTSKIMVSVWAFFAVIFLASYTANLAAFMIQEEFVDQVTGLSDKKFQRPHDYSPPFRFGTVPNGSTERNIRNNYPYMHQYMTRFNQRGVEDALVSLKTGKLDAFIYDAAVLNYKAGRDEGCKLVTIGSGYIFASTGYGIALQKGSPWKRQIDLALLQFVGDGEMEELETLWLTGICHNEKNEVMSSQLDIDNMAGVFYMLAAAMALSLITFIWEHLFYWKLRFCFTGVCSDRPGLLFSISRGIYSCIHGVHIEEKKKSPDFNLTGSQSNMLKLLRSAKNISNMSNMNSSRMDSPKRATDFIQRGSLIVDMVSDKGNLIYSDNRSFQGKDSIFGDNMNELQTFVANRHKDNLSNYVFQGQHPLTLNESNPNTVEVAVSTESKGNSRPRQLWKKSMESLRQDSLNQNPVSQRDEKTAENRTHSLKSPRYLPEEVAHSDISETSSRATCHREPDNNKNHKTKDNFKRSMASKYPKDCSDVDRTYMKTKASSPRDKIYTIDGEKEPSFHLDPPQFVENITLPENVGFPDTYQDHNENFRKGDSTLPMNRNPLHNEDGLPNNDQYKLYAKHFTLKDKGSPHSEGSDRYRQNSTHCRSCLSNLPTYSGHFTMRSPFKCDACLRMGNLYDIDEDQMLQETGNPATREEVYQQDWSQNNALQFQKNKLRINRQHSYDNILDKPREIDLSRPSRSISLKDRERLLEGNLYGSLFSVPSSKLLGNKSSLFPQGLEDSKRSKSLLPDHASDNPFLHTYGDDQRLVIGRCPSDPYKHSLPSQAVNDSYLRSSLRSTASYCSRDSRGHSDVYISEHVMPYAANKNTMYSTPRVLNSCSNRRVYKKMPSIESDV
as §1
HEK293 cells (CRL-1573, ATCC, Manassas, VA) were maintained in a tissue culture room solely reserved for their culturing and transfected using a CaPO4 protocol to express the diheteromeric NMDARs as previously described ([Hansen et al., 2013]). Cell lines were obtained directly from the supplier, were expanded, frozen and kept in liquid nitrogen in a dewar. Mycoplasma testing was not performed. cDNA ratios for transfection were 1:1:1 (GluN2D) or 1:1:5 (GluN2A) for GluN1:GluN2:GFP. […]

Setting [1] is: concentration dependence of linear component of time course.

Several values for one entry are separate records, joined by “and”; a condition that tells them apart may be missing. Equal entries are not always repeated.

GluN1/GluN2D NMDARs, sequence (Q62645 28-1323, other chains not shown): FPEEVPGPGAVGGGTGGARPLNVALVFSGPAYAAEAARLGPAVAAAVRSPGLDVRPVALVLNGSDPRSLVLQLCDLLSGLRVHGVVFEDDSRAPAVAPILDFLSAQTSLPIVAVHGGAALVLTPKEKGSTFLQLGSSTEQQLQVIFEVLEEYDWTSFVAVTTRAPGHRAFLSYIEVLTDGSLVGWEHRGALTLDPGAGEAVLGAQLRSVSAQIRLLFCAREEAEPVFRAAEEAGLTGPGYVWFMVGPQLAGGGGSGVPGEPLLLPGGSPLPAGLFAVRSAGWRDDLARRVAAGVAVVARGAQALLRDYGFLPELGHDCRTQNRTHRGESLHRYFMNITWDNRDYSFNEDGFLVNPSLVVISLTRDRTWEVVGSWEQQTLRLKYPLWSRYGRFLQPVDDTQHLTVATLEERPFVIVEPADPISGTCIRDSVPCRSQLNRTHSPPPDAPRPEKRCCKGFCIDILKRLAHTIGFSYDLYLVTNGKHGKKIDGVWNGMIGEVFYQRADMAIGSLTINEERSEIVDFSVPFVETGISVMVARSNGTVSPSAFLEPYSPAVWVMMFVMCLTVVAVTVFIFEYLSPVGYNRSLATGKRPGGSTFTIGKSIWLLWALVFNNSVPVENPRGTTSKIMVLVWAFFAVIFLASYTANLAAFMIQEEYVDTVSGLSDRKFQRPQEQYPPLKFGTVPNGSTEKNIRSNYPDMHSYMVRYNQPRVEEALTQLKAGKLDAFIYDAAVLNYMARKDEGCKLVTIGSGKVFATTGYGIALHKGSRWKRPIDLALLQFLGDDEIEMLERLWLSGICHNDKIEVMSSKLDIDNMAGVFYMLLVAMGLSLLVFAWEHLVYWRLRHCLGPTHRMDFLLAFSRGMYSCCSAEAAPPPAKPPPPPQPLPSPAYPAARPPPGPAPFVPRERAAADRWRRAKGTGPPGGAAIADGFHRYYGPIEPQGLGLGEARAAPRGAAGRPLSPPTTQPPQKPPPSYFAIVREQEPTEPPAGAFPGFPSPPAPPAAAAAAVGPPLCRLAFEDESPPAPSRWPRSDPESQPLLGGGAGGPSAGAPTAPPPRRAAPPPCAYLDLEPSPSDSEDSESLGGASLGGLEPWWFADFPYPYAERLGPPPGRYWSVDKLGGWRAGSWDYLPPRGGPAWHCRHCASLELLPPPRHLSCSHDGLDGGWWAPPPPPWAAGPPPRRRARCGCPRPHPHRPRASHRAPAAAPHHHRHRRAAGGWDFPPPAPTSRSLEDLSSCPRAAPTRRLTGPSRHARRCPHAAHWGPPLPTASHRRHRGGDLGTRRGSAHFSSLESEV

As for `CCOC(=O)c1c(NC(=O)CC2SC(=N)NC2=O)sc2c1CCC(C)C2` (stereo not drawn) [EU1794-2, ethyl 2-(2-(2-imino-4-oxothiazolidin-5-yl)acetamido)-6-methyl-4,5,6,7-tetrahydrobenzo[b]thiophene-3-carboxylate], on GluN1/GluN2D NMDARs, the kon was found to be 430000 M⁻¹ s⁻¹; the off-rate constant (koff) turned out to be 0.495 s⁻¹; the Kd is 1.1 µM and 1.14 µM. Further, at GluN1/GluN2A NMDARs, the “modulation of high desensitized steady state responses” value was 32 % of control, the “modulation of low desensitized steady state responses (drug/control)” value (from here on “modulation … (drug/control)”) was 13 % of control, the association rate constant (kon) was 390000 M⁻¹ s⁻¹ and the koff stood at 0.938 s⁻¹. In addition, the Kd on GluN1/GluN2A NMDARs was 2.41 µM.

With `CCOC(=O)c1c(NC(=O)CC2SC(=N)NC2=O)sc2c1CCCC2` (stereo not drawn) [EU1794-4, ethyl 2-(2-(2-imino-4-oxothiazolidin-5-yl)acetamido)-4,5,6,7-tetrahydrobenzo[b]thiophene-3-carboxylate], at GluN1/GluN2D NMDARs, the kon is 1.12e+06 M⁻¹ s⁻¹; the koff stood at 4.66 s⁻¹; the equilibrium dissociation constant (Kd) is 4.2 µM and 4.16 µM. Besides, at GluN1/GluN2A NMDARs, the “modulation … (drug/control)” value is listed as 47 % of control, the kon came to 502000 M⁻¹ s⁻¹, the koff came out at 3.94 s⁻¹ and the Kd is 7.85 µM.

Regarding `CC(C)(C)OC(=O)c1c(NC(=O)CC2SC(=N)NC2=O)sc2c1CCCC2` (stereo not drawn) [EU1794-27, tert-butyl 2-(2-(2-imino-4-oxothiazolidin-5-yl)acetamido)-4,5,6,7-tetrahydrobenzo[b]thiophene-3-carboxylate], on GluN1/GluN2D NMDARs, the kon came out at 187000 M⁻¹ s⁻¹, the koff is 0.802 s⁻¹ and the Kd is 4.3 µM. At GluN1/GluN2D NMDARs (setting [1]), the “association linear component slope mon” value is on record as −0.98 pA/(ms*µM) and the “dissociation linear component slope moff” value is recorded as 0.62 pA/(ms*µM). At GluN1/GluN2A NMDARs, the “modulation of high desensitized steady state responses” value was 247 % of control and 247 ± 31 % of control; the “modulation … (drug/control)” value was 107 % of control and 107 ± 16 % of control; the kon is 59200 M⁻¹ s⁻¹; the koff is 0.426 s⁻¹. At GluN1/GluN2A NMDARs, the Kd is 7.2 µM. For the same compound, at GluN1/GluN2A NMDARs (setting [1]), the “association linear component slope mon” value was −0.33 pA/(s*µM) and the “dissociation linear component slope moff” value was 0.16 pA/(s*µM).
